The text below walks through data of US9624228B2, “Inhibitors of ERK and methods of use” (KURA ONCOLOGY, INC., priority 2013, dated 2017).

For one assay, the target named is ERK2 enzyme (Homo sapiens (Human), UniProt P28482). Kind of assay: Inhibition assay of ERK (Z'-LYTE kinase assay, Ser/Thr 3 peptide substrate). In kind it is biochemical. To be noted: In vitro ERK2 enzyme, 100 μM ATP. As to the method: The inhibition of ERK activity by the compounds disclosed herein was determined using the Z′-LYTE kinase assay kit (Life Technologies) with a Ser/Thr 3 peptide substrate (Life Technologies) according to manufacturers' instructions. […] The IC50 values for the compounds were determined with 3-fold serial dilutions in duplicate. […] The final DMSO concentration in the assay was 1%. Final reaction volume was 20 μL/well in 384-well plates. Kinase reactions were conducted or 1 hour followed by the assay development reaction (1 hour) in a 20 ul/well in a 384 well plate format.
Chain of ERK2 enzyme (P28482 whole entry): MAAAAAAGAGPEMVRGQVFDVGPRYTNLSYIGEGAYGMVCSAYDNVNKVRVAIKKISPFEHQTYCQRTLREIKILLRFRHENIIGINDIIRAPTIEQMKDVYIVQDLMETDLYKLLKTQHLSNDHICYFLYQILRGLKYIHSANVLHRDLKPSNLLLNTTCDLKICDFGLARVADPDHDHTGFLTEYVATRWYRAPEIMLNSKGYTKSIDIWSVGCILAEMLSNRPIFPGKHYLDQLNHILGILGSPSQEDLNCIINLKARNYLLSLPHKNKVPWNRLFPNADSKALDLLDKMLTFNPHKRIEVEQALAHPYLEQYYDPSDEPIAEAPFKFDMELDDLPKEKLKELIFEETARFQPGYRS
The compound `Cc1ccc(-c2n[nH]c3cc4c(cc23)CN(Cc2cccc(Cl)c2)C(=O)N4)cn1` [Compound 58] showed an IC50 of under 50 nM. `COc1ncc(-c2n[nH]c3cc4c(cc23)CN(Cc2cccc(Cl)c2)CC(=O)N4)cn1` [Compound 98] showed an IC50 of over 1000 nM. The compound `Cc1cc(-c2n[nH]c3cc4c(cc23)CN(Cc2ccc(F)cc2F)C(=O)N4)ccn1` [Compound 11] yielded an IC50 of under 50 nM. `COc1ncc(-c2n[nH]c3cc4c(cc23)CN(CCc2cccc(Cl)c2)CC(=O)N4)cn1` [Compound 107] yielded an IC50 of 250 to 1000 nM. Still for that read-out and setting: in the case of `Cc1cc(-c2n[nH]c3cc4c(cc23)CN(C2CCN(Cc3ccccc3)CC2)C(=O)N4)ccn1` [Compound 70] it was under 50 nM; in that of `O=C1Nc2cc3[nH]nc(-c4ccncc4)c3cc2CN1Cc1ccccc1` [Compound 1, 6-benzyl-3-(pyridin-4-yl)-1,5,6,8-tetrahydro-7H-pyrazolo[4,3-g]quinazolin-7-one], under 50 nM; in that of `Cc1cc(-c2n[nH]c3cc4[nH]c(=O)n(Cc5ccc(F)c(Cl)c5)c(=O)c4cc23)ccn1` [Compound 15], 50 to 250 nM. `Cc1cc(-c2n[nH]c3cc4c(cc23)CN([C@@H]2CCCN(CCC(C)(C)C)C2)C(=O)N4)ccn1` [Compound 136]: the IC50 was 50 to 250 nM. Still for that read-out and setting: in the case of `O=C1Nc2cc3[nH]nc(-c4ccc(=O)[nH]c4)c3cc2CN1Cc1cccc(Cl)c1` [Compound 61] it was under 50 nM; in that of `Cc1cc(-c2n[nH]c3cc4c(cc23)CN(CCN(C)C)C(=O)N4)ccn1` [Compound 46], 50 to 250 nM. Take `Cc1cccc(-c2n[nH]c3cc4c(cc23)CN(Cc2cccc(Cl)c2)C(=O)N4)n1` [Compound 108]: the IC50 lay within 50 to 250 nM. The same measure, in the same setting: as for `C[C@H](c1ccc(Cl)cc1)N1Cc2cc3c(-c4ccnnc4)n[nH]c3cc2NC1=O` [Compound 115], the figure is under 50 nM. The same measure, in the same setting: in the case of `Cc1cc(-c2n[nH]c3cc4c(cc23)CN(C(C)CC(C)C)C(=O)N4)ccn1` (stereo not drawn) [Compound 53] it was under 50 nM; in that of `COc1cccc(F)c1CN1CCC(N2Cc3cc4c(-c5ccnnc5)n[nH]c4cc3NC2=O)CC1` [Compound 116], 50 to 250 nM. `Cc1cc(-c2n[nH]c3cc4c(cc23)CN([C@@H]2CCCN(Cc3cnccc3C)C2)C(=O)N4)ccn1` [Compound 183] returned an IC50 of 50 to 250 nM. As to `COc1ncc(-c2n[nH]c3cc4c(cc23)CN(C)C(=O)N4)cn1` [Compound 96], the IC50 fell in the range of 50 to 250 nM.

`Cc1cc(-c2n[nH]c3cc4c(cc23)CN(Cc2cccc(Cl)c2)C(=O)N4)cc(C)n1` [Compound 77]: the IC50 is under 50 nM.

`COc1ccc(-c2n[nH]c3cc4c(cc23)CN(Cc2ccc(F)c(Cl)c2)C(=O)N4)cn1` [Compound 36]: the IC50 was under 50 nM.

Turning to `Cc1cc(-c2n[nH]c3cc4[nH]c(=O)n(Cc5ccccc5)c4cc23)ccn1` [Compound 19], the IC50 is under 50 nM. Same read-out and setting: as for `O=C1Nc2cc3[nH]nc(-c4ccnnc4)c3cc2CN1Cc1cccc(C(F)(F)F)c1` [Compound 124], the figure is under 50 nM. In turn, `Cc1cc(-c2n[nH]c3cc4[nH]c(=O)c(C(C)C5CCCCC5)cc4cc23)ccn1` (stereo not drawn) [Compound 160] gave an IC50 of 50 to 250 nM. Same read-out and setting: in the case of `COc1ccc(-c2n[nH]c3cc4c(cc23)CN(Cc2ccc(F)cc2)C(=O)N4)cn1` [Compound 76] it was under 50 nM.

Consider `CCC(c1ccccc1)c1cc2cc3c(-c4ccnc(C)c4)n[nH]c3cc2[nH]c1=O` (stereo not drawn) [Compound 64], for which the IC50 was under 50 nM. Same read-out and setting: as for `Cc1cc(-c2n[nH]c3cc4[nH]c(=O)n(Cc5ccccc5)c(=O)c4cc23)ccn1` [Compound 27], the figure is under 50 nM; as for `Cc1cc(-c2n[nH]c3cc4c(cc23)CN([C@@H]2CCCOC2)C(=O)N4)ccn1` [Compound 49], under 50 nM; as for `Cc1cc(-c2n[nH]c3cc4c(cc23)CN(Cc2ccc(F)c(F)c2)C(=O)N4)ccn1` [Compound 13], under 50 nM. The compound `Cc1cc(-c2n[nH]c3cc4c(cc23)CN([C@@H]2CCCN(Cc3ccccn3)C2)C(=O)N4)ccn1` [Compound 171] came in with an IC50 of 50 to 250 nM. Consider `Cc1cc(-c2n[nH]c3cc4c(cc23)CN([C@@H]2CCCN(Cc3cnn(C)c3)C2)C(=O)N4)ccn1` [Compound 133], for which the IC50 was under 50 nM.

Staying with this assay, now noted: In vitro, ERK2 enzyme 0.47 ng/μL, 100 μM ATP.
Turning to `Cc1cc(-c2n[nH]c3cc4c(cc23)CN([C@@H]2CCN(C(C)C)C2)C(=O)N4)ccn1` [Compound 268], the IC50 fell in the range of 50 to 250 nM. Consider `Cc1cc(-c2n[nH]c3cc4c(cc23)CN([C@@H]2CN(CC(F)(F)F)C[C@H]2c2ccccc2F)C(=O)N4)ccn1` (racemic) [Compound 311], for which the IC50 was 50 to 250 nM. Same read-out and setting: in the case of `CC(c1ccccc1)c1cc2cc3c(-c4ccnc(N5CCOCC5)c4)n[nH]c3cc2[nH]c1=O` (stereo not drawn) [Compound 325] it was under 50 nM; in that of `Cc1cc(-c2n[nH]c3cc4c(cc23)CN([C@H]2CN(C(C)C)C[C@@H]2c2ccccc2)C(=O)N4)ccn1` [Compound 296], 50 to 250 nM; in that of `Cc1cc(-c2n[nH]c3cc4c(cc23)CN([C@@H]2CCC[C@@H](NCc3ccccc3)C2)C(=O)N4)ccn1` [Compound 313], under 50 nM. Same read-out and setting: as for `COc1ncc(-c2n[nH]c3cc4c(cc23)CN([C@@H]2CN(CC(F)(F)F)C[C@H]2c2ccccc2)C(=O)N4)cn1` [Compound 348], the figure is under 50 nM; as for `Cc1cc(-c2n[nH]c3cc4c(cc23)CN([C@@H]2CN(CC(F)(F)F)C[C@H]2c2ccc(F)cc2)C(=O)N4)ccn1` (racemic) [Compound 300], under 50 nM; as for `Nc1ncc(-c2n[nH]c3cc4c(cc23)CN([C@@H]2CN(CC(F)(F)F)C[C@H]2c2ccccc2)C(=O)N4)cn1` [Compound 351], under 50 nM. `Cc1cc(-c2n[nH]c3cc4c(cc23)CN([C@@H]2CN(C)C[C@H]2c2ccccc2)C(=O)N4)cc(C)n1` (racemic) [Compound 248] came in with an IC50 of under 50 nM. `Cc1cc(-c2n[nH]c3cc4c(cc23)CN(CC2CCOCC2)C(=O)N4)ccn1` [Compound 211] yielded an IC50 of under 50 nM. In turn, `Cc1cc(-c2n[nH]c3cc4c(cc23)CN(C2CCC(F)(F)CC2)C(=O)N4)ccn1` [Compound 224] showed an IC50 of under 50 nM. Regarding `Cc1cc(-c2n[nH]c3cc4c(cc23)CN([C@@H]2CN(CC(F)(F)F)C[C@H]2c2cccs2)C(=O)N4)ccn1` (mixture of isomers) [Compound 321], the IC50 is under 50 nM. On the same count and under the same terms, as for `Cc1cc(-c2n[nH]c3cc4c(cc23)CN([C@@H]2CN(CC(F)F)C[C@H]2c2ccccc2)C(=O)N4)ccn1` (mixture of isomers) [Compound 362], the figure is under 50 nM. Take `CC(c1ccccc1)c1cc2cc3c(N4CCOCC4)n[nH]c3cc2[nH]c1=O` (stereo not drawn) [Compound 345]: the IC50 is under 50 nM.

In turn, `Cc1cc(-c2n[nH]c3cc4c(cc23)CN(C2CN(Cc3ccccc3)CC(F)(F)C2)C(=O)N4)ccn1` (stereo not drawn) [Compound 200] returned an IC50 of under 50 nM. For `Cc1cc(-c2n[nH]c3cc4c(cc23)CN([C@@H]2CCN(c3cccc(Cl)c3)C2)C(=O)N4)ccn1` [Compound 249], the IC50 fell in the range of 50 to 250 nM. `Cc1cc(-c2n[nH]c3cc4c(cc23)CN(CC2CCCC2)C(=O)N4)ccn1` [Compound 212] gave a half-inhibitory concentration (IC50) of under 50 nM. In the case of `Cc1cc(-c2n[nH]c3cc4c(cc23)CN([C@@H]2CCN(c3ccc(F)cn3)C2)C(=O)N4)ccn1` [Compound 257], the IC50 was in the range of 50 to 250 nM.

The compound `COc1ccc(-c2n[nH]c3cc4c(cc23)CN([C@H]2CCCN(Cc3ccccc3)C2)C(=O)N4)cn1` [Compound 368] had an IC50 of 50 to 250 nM. The same measure, in the same setting: as for `CC(c1ccccc1)c1cc2cc3c(-c4cnc(N)nc4)n[nH]c3cc2[nH]c1=O` (stereo not drawn) [Compound 334], the figure is under 50 nM. Still for that read-out and setting: as for `Cc1cc(-c2n[nH]c3cc4c(cc23)CN(Cc2nc(C)cs2)C(=O)N4)ccn1` [Compound 246], the figure is under 50 nM; as for `Cc1cc(-c2n[nH]c3cc4c(cc23)CN([C@@H]2CCN(CCC(C)C)C2)C(=O)N4)ccn1` [Compound 207], 50 to 250 nM; as for `Cc1cc(-c2n[nH]c3cc4c(cc23)CN([C@@H]2CN(C)C[C@H]2c2ccc(F)cc2)C(=O)N4)cc(C)n1` (racemic) [Compound 305], 50 to 250 nM. On the same count and under the same terms, as for `C=C(c1ccccc1)c1cc2cc3c(-c4ccnc(C)c4)n[nH]c3cc2[nH]c1=O` [Compound 269], the figure is under 50 nM; as for `Cc1cc(-c2n[nH]c3cc4[nH]c(=O)c(C5CCCN(Cc6cccs6)C5)cc4cc23)ccn1` (stereo not drawn) [Compound 378], 50 to 250 nM; as for `Cc1cc(-c2n[nH]c3cc4[nH]c(=O)c(C5CCCC5)cc4cc23)ccn1` [Compound 289], under 50 nM.

In the case of `CCN1C[C@@H](N2Cc3cc4c(-c5ccnc(C)c5)n[nH]c4cc3NC2=O)[C@H](c2ccccc2)C1` (racemic) [Compound 278], the IC50 is under 50 nM.

Regarding `COc1ccc(-c2n[nH]c3cc4c(cc23)CN([C@@H]2CN(C)C[C@H]2c2ccccc2)C(=O)N4)cn1` (mixture of isomers) [Compound 353], the IC50 is under 50 nM. Still for that read-out and setting: as for `Cc1cc(-c2n[nH]c3cc4c(cc23)CN(C(C)c2nc(C)c(C)s2)C(=O)N4)ccn1` (stereo not drawn) [Compound 286], the figure is under 50 nM. `Cc1cc(-c2n[nH]c3cc4c(cc23)CN(Cc2nc(C)c(C)s2)C(=O)N4)ccn1` [Compound 228] yielded an IC50 of under 50 nM. On the same count and under the same terms, as for `Cc1ncc(-c2n[nH]c3cc4c(cc23)CN([C@@H]2CCN(CC(F)(F)F)C2)C(=O)N4)cn1` [Compound 282], the figure is under 50 nM; as for `CC(c1ccccc1)c1cc2cc3c(-c4ccnc(N)c4)n[nH]c3cc2[nH]c1=O` (stereo not drawn) [Compound 344], under 50 nM; as for `Cc1cnccc1-c1n[nH]c2cc3[nH]c(=O)c(C(C)c4ccccc4)cc3cc12` (stereo not drawn) [Compound 343], 50 to 250 nM. Still for that read-out and setting: as for `Cc1cc(-c2n[nH]c3cc4c(cc23)CN([C@H](C)c2ccccc2)C(=O)N4)cc(C)n1` [Compound 377], the figure is under 50 nM; as for `Cc1ncc(-c2n[nH]c3cc4c(cc23)CN([C@@H]2CCCN(Cc3ccc(F)cc3F)C2)C(=O)N4)cn1` [Compound 293], under 50 nM.

A word on the IC50: it is the point on the concentration scale where inhibition reaches its midpoint. Lower therefore signals greater potency.
